Experiments:
ENZ1 (SEQ ID NO:1) = target: T1, ENZ1 (SEQ ID NO:1) (Catenulispora acidiphila, UniProt C7QJ42); test: Enzymatic hydroxylation of L-lysine, 10 mL scale, conversion by HPLC (protocol A); format: biochemical; conditions: ENZ1 0.024 mg/mL, L-lysine 10 mM, α-ketoglutarate 15 mM, sodium ascorbate 2.5 mM, Fe(II) 1 mM, Hepes pH 7.50, room temperature, 18h
T1 construct: His6 (hexahistidine, inserted after the initial methionine) (N); made in house; host or cells: E. coli BL21(DE3) plysE
T1 sequence (C7QJ42 1-358): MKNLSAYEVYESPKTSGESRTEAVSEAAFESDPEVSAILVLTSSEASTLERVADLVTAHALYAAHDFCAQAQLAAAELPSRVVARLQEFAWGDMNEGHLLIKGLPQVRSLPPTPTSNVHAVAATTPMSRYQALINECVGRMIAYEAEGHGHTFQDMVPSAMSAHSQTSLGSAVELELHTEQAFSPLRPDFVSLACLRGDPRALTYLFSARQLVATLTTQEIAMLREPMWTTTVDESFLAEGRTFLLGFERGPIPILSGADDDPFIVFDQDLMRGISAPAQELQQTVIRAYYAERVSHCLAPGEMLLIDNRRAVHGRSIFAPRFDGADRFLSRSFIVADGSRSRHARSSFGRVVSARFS
Method: (§1) Enzymatic reaction medium (0.2 µmole, leq.), borate buffer 0,2M pH 7.7 (80 µL) and Fmoc-Cl solution7.5 mM in acetone (100 µL, 0.75 µmole, 3.75 eq) were hand shaked in a closed 1.50 mL eppendorf for one minute. The aqueous layer was extracted with petroleum ether (3*1 mL) to eliminate excess of Fmoc-Cl. 70 µL of the aqueous phase were withdrawn, diluted with 70 µL of acetonitrile and injected into the HPLC. For substrates with two amine functions, 100 µL of Fmoc-Cl solution 15 mM were used.
(§2) Conditions for HPLC analysis: Atlantis® T3 (3 µm 4.5*150 mm) at 35°C with the gradient 50-86% eluent B (MeCN + 0.1% TFA) and eluent A (H2O + 0.1% TFA) in 20 min at 1 mL/min.
Enzymatic reaction was carried out in 250 mL glass erlenmeyer flask for a total volume of 4*10 mL. Water (4.8 mL), Hepes buffer 1M pH 7.50 (0.5 mL, 50 mM), L-lysine 50 mM (2 mL, 10 mM), α-ketoglutarate 150 mM (1 mL, 15 mM), sodium ascorbate 100 mM (0.25 mL, 2.5 mM), ammonium Iron(II) sulfate hexahydrate 10 mM (1 mL, 1 mM) were poured into the erlenmeyer flask. The reaction was started by the enzyme addition (0.53 mg/mL, 0.45 mL, final concentration 0.024 mg/mL). The reaction mixture was orbitally shaken (300 rpm) at room temperature for 18h. The conversion of L-lysine into 3-hydroxy-L-lysine (94%) was determined by HPLC after derivatization with Fmoc-Cl according to protocol A.

ENZ2 (SEQ ID NO:2) = target: T2, ENZ2 (SEQ ID NO:2) (Flavobacterium johnsoniae, UniProt A5FF23); test: as above; format: biochemical; conditions: with ENZ2 0.086 mg/mL; otherwise as ENZ1 protocol (L-lysine 10 mM, room temperature, 18h)
T2 construct: His6 (hexahistidine, inserted after the initial methionine) (N); made in house; host or cells: E. coli BL21(DE3) plysE
T2 sequence (A5FF23 whole entry): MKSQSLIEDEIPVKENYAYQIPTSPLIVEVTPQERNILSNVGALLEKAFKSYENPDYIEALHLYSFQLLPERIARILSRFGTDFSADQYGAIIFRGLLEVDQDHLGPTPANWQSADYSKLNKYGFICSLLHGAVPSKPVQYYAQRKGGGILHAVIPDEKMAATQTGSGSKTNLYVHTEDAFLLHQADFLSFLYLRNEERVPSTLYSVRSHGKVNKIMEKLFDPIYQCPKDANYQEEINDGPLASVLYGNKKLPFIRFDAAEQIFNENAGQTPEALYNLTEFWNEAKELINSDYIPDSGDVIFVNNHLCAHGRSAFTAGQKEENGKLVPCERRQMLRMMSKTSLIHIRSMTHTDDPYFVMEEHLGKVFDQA
Method: as §1, §2
(§3) Enzymatic reaction was carried out in 250 mL glass erlenmeyer flask for a total volume of 4*10 mL. […] The conversion of L-lysine into 3-hydroxy-L-lysine (94%) was determined by HPLC after derivatization with Fmoc-Cl according to protocol A.
(§4) The protocol used was the same as that described above for the hydroxylation by ENZ1 except that the enzyme concentrations used were different (ENZ2: 0.086 mg/mL; ENZ3: 0.031 mg/mL). Conversions were determined by HPLC after derivatization with Fmoc-Cl according to protocol A as described above. […]

ENZ3 SEQ ID NO:3 = target: T3, ENZ3 SEQ ID NO:3 (Chitinophaga pinensis, UniProt C7PLM6); test: as above; format: biochemical; conditions: printed 'with ENZ1'; protocol lists ENZ3 0.031 mg/mL; otherwise as ENZ1 protocol (L-lysine 10 mM, room temperature, 18h)
T3 construct: His6 (hexahistidine, inserted after the initial methionine) (N); made in house; host or cells: E. coli BL21(DE3) plysE
T3 sequence (C7PLM6 1-382): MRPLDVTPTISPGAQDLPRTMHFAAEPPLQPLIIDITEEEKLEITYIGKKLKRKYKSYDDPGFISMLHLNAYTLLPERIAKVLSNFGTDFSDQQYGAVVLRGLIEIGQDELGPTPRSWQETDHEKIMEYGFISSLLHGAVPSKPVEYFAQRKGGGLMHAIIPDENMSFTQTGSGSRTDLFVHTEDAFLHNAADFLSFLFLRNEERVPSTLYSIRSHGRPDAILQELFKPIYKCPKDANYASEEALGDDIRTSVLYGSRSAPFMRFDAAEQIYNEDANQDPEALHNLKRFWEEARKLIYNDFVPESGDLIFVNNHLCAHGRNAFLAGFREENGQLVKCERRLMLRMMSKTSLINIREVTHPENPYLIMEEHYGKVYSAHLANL
Method: as §1, §2, §3, §4

[1] = tested on: ENZ1 (SEQ ID NO:1) and ENZ2 (SEQ ID NO:2); test: Cascade dihydroxylation of L-lysine, conversion by HPLC (protocol A); format: biochemical, Catenulispora acidiphila; Flavobacterium johnsoniae; conditions: ENZ1 0.13 mg/mL 3h, then ENZ2 added, 18 h, room temperature
Method: as §1, §2
Enzymatic reaction was carried out in 250 mL glass erlenmeyer flask for a total volume of 4*10 mL. Water (5.6 mL), Hepes buffer 1M pH 7.50 (0.5 mL, 50 mM), L-lysine […] (1 mL, 10 mM), α-ketoglutarate 150 mM (1 mL, 15 mM), sodium ascorbate 100 mM (0.25 mL, 2,5 mM), ammonium Iron(II) sulfate hexahydrate 10 mM (1 mL, 1 mM) were poured into the erlenmeyer. The reaction was started by ENZ1 addition (1.99 mg/mL, 0.65 mL, final concentration 0.13 mg/mL). […] The conversion (90%) was determined by HPLC after derivatization with Fmoc-Cl according to protocol A. The assembled reaction mixtures were acidified with 200 µL of TFA then centrifuged. […]

NCCCC[C@H](N)C(=O)O [L-lysine]
conversion of L-lysine into 3-hydroxy-L-lysine (ENZ1 (SEQ ID NO:1)): 94% | conversion of L-lysine into (4R)-hydroxy-L-lysine (ENZ2 (SEQ ID NO:2)): 91% | conversion of L-lysine into (4R)-hydroxy-L-lysine (ENZ3 SEQ ID NO:3): 96% | conversion (L-lysine dihydroxylation to 3,4-di-hydroxy-L-lysine) [1]: 90%
